We go through one molecule from article PMC7468568 (Nature chemical biology, 2020).

SMILES strings stand for the structures. A value given as a limit tells only on which side of the number the result lay.

Data set [1] deals with c-Fos protein expression in the paraventricular nucleus (PVN). Description: HPA axis activation: c-Fos labeling in the PVN. Type of data set: in vivo, mouse. The settings on record: C57BL/6J mice; 30 mg kg^−1 i.p. single dose; 210 min before perfusion; P< 0.0001.
A further data set has as its target T1, PLA2G4E (Homo sapiens, UniProt Q3MJ16).
T1 sequence (Q3MJ16 1-868): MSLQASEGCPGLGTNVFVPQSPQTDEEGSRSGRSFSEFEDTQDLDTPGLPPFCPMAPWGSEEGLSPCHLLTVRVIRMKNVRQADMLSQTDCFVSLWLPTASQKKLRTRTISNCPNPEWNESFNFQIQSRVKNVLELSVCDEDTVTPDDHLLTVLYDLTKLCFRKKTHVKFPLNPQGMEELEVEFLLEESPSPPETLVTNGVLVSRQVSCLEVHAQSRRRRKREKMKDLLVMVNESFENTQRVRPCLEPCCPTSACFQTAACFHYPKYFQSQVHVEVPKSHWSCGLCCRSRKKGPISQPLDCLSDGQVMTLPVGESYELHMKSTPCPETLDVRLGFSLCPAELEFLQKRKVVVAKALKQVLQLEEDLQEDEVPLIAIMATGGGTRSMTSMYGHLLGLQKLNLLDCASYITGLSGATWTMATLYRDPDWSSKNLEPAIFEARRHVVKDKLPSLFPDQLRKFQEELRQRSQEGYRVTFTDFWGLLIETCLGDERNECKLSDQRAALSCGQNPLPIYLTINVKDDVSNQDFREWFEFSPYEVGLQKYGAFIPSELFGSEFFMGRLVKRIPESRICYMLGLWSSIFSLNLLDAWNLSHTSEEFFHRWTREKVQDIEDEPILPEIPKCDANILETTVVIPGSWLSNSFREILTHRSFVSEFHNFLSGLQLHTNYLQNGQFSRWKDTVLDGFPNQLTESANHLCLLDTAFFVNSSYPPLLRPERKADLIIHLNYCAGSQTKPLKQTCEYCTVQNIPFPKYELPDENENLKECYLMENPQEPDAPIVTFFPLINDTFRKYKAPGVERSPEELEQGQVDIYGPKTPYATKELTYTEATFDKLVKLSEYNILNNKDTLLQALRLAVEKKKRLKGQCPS
Briefly: Gel-based ABPP, hPLA2G4E overexpressing membrane lysate. The settings on record: at 10 μM. Type of data set: biochemical.

Data set [2] concerns the target protein targets of photoprobe 10 in hNAPE-PLD-FLAG-transfected HEK293T cells (Homo sapiens, UniProt Q6IQ20). Description: Chemical proteomics-based photoaffinity labeling. Type of data set: cell-based. The settings on record: photoprobe 10 2 μM versus LEI-401 20 μM.
The nature of data set [3]: Plasma protein binding, human. Type of data set: in vitro ADME. To be noted: equilibrium dialysis. On the technique in general: In equilibrium dialysis only unbound substance equilibrates across the membrane.
The target of the next data set is T2, mDAGLβ (Mus musculus, UniProt Q91WC9).
T2 sequence (Q91WC9 1-669): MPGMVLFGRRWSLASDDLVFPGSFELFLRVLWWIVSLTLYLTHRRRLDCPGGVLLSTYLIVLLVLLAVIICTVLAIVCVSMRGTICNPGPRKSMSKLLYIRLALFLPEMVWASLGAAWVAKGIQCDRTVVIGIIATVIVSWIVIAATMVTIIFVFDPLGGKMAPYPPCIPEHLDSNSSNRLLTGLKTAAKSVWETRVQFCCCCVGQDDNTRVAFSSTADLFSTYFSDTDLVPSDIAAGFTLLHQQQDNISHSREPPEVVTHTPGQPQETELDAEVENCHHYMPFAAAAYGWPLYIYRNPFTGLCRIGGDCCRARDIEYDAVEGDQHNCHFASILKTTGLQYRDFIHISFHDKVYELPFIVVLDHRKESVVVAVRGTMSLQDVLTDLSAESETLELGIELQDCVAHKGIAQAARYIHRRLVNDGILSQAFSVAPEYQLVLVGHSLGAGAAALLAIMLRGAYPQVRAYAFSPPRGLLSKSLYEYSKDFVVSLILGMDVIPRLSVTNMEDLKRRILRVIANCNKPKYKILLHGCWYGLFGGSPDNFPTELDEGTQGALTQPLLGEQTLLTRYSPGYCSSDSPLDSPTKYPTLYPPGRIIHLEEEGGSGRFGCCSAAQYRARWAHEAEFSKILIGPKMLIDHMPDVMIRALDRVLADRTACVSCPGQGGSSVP
Description: Surrogate substrate-based fluorescence assay DAGLβ. Type of data set: biochemical.

Data set [4] can be described thus: Hepatocyte clearance, mouse. Type of data set: in vitro ADME. To be noted: 1 μM.
The target of a further data set is human PGP-transporter (Homo sapiens, UniProt P08183). Briefly: P-glycoprotein active efflux assay, human. Type of data set: in vitro ADME.
human PGP-transporter, sequence (P08183 whole entry): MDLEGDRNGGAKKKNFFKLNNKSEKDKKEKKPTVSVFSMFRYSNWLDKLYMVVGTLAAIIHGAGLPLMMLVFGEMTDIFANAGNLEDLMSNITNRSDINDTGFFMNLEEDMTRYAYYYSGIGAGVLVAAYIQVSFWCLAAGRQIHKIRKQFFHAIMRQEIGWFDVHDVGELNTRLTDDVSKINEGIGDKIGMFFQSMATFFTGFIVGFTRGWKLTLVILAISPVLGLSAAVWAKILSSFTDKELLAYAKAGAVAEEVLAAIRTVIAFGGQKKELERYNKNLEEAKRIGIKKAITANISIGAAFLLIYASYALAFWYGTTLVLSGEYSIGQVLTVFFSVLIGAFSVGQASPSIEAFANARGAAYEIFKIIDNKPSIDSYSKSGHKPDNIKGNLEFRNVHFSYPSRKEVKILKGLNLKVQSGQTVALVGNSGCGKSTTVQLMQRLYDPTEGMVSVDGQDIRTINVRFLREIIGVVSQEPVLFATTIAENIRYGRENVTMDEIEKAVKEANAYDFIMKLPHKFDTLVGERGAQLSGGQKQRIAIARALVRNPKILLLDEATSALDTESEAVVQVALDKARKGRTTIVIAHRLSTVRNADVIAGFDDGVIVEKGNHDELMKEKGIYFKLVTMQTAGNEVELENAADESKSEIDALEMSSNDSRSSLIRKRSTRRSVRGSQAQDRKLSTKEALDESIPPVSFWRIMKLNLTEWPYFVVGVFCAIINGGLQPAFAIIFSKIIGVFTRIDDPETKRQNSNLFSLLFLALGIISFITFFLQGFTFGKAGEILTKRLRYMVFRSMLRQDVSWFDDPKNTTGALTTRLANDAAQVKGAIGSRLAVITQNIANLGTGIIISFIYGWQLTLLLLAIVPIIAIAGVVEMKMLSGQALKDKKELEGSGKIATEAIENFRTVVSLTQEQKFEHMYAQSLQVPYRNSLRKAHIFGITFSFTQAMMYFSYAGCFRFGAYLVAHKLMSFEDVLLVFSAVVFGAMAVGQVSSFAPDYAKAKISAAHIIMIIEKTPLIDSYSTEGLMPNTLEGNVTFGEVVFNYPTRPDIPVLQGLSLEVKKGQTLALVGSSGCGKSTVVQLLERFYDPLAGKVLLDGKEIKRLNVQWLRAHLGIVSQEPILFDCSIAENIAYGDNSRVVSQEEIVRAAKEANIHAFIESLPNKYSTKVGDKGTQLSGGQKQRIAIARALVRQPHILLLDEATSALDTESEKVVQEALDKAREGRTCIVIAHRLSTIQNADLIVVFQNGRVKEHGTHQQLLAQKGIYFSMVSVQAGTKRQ
Another data set relates to Neuro-2a cells. Description: Live cell count with trypan blue. Type of data set: cell-based, mouse. To be noted: 10 μM, 2 h.
Data set [5] can be described thus: Microsomal clearance, mouse. The settings on record: 1 μM. Type of data set: in vitro ADME.
In a further data set the target is cannabinoid CB2 receptor (Homo sapiens, UniProt P34972). Briefly: [3H]CP55940 radioligand displacement assay CB2. To be noted: at 10 μM. Type of data set: binding. A general note: Displacement assays read how much labelled ligand stays bound in the presence of the test substance.
cannabinoid CB2 receptor, sequence (P34972 whole entry): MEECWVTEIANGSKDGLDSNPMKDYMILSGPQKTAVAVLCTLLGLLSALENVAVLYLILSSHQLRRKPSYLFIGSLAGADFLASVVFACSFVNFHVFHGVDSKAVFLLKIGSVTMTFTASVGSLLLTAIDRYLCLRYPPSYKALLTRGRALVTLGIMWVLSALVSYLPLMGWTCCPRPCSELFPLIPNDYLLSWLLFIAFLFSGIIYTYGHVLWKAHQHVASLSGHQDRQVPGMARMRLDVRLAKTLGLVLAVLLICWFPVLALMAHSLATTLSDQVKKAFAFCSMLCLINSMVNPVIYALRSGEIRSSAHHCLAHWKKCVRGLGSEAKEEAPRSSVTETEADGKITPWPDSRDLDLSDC
The target of another data set is T3, human MAGL (Homo sapiens, UniProt Q99685).
T3 sequence (Q99685 1-303): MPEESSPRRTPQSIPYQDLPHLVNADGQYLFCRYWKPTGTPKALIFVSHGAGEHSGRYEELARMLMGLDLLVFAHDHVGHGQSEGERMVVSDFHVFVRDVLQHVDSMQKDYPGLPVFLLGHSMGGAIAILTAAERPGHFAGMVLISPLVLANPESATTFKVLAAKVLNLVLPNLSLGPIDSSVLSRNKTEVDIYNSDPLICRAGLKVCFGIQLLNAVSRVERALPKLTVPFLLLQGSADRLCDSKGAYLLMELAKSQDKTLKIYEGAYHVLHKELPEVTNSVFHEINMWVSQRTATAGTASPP
Briefly: Natural substrate-based fluorescence assay MAGL. Type of data set: biochemical.

Data set [6] in a line: Plasma protein binding, mouse. Type of data set: in vitro ADME. The settings on record: equilibrium dialysis.

protein targets of photoprobe 10 in hNAPE-PLD-FLAG-transfected HEK293T cells, sequence (Q6IQ20 whole entry): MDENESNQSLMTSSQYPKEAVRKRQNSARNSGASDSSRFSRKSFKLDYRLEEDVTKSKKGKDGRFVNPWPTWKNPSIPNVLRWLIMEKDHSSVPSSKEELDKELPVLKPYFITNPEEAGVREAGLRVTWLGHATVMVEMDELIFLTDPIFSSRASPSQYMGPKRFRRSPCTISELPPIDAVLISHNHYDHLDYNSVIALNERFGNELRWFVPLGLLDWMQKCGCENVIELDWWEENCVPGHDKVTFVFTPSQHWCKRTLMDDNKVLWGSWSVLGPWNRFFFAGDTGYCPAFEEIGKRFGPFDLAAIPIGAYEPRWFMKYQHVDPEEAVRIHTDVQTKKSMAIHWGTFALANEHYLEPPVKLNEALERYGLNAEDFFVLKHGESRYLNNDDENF

On to `O=C(NCC1CC1)c1cc(N2CC[C@H](O)C2)nc(N2CCC[C@@H](c3ccccc3)C2)n1` [LEI-401], for which the “c-Fos protein expression in PVN” value in data set [1] is listed as “elevated c-Fos protein expression”. Further, on PLA2G4E, the “inhibitory activity, PLA2G4E” value was “No inhibitory activities”. Moreover, the “competition of NAPE-PLD labeling by probe 10” value in data set [2] was “labeling could be prevented”. Further, the human protein binding in [3] is on record as greater than 99.8%. Further, at mDAGLβ, the “inhibition of DAGLβ” value is reported as “did not inhibit”. The “clearance in mouse hepatocytes” value in [4] amounted to 28.8 μl min^−1 per 10^6 cells. On human PGP-transporter, the “efflux ratio, human PGP-transporter” value amounted to 1.7. In addition, the cell viability result in the data set on Neuro-2a cells is given as “did not show any sign of reduced cell viability”. Besides, in data set [5], the “clearance in mouse microsomes” value came out at 42 μl min^−1 mg^−1 protein. For the same molecule, the “inhibitory activity, cannabinoid receptor type 2” value on cannabinoid CB2 receptor is given as “No inhibitory activities”. In addition, the “inhibition of MAGL” value against human MAGL is “did not inhibit”. The molecule also displayed a mouse protein binding in data set [6] greater than 99.8%.
